This is an account of results in PubChem BioAssay (NCI).

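96-well plates; 48 h exposure; 5 concentrations. Endpoints by linear interpolation between flanking doses. Not reached: highest tested concentration assigned. TGI denotes the concentration required for complete inhibition of growth.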

Test systems include EKVX NSCLC; HCC-2998 colon; HCT-116 colon; HOP-92 NSCLC; HS 578T breast; HT29 colon; IGROV1 ovarian; KM12 colon; MCF7 breast; MDA-MB-435; NCI-H460 lung; OVCAR-3 ovarian; OVCAR-5 ovarian; SF-539 CNS; SK-MEL-28 melanoma; SNB-19 CNS; TK-10 renal; UACC-62 melanoma.
Holding throughout (test): DTP human tumour cell line panel, 48 h

The term TGI denotes the concentration at which net growth stops. A lower TGI goes with greater sensitivity of the cells. For `C#C[C@]1(O)CC[C@H]2[C@@H]3CCC4=C/C(=N\OCCN5CCCC5)CC[C@]4(C)[C@H]3CC[C@@]21C`, the concentration for total growth inhibition (TGI) in the assay with EKVX NSCLC is 38.1 µM; in the assay on HCC-2998 colon, 34.5 µM; with HCT-116 colon, 28.7 µM; in the assay with HOP-92 NSCLC it was greater than 100 µM; with HS 578T breast, 21.7 µM; with HT29 colon, 29.7 µM. The TGI in the assay with IGROV1 ovarian was 23.2 µM; in the assay on KM12 colon, 19.6 µM; in the assay on MCF7 breast, 21.5 µM; with MDA-MB-435, 15 µM; with NCI-H460 lung, 40.6 µM; in the assay with OVCAR-3 ovarian it was 27.1 µM. The concentration for total growth inhibition (TGI) in the assay with OVCAR-5 ovarian is 50.3 µM; with SF-539 CNS, 28.2 µM; in the assay with SK-MEL-28 melanoma it was 44.6 µM; with SNB-19 CNS, 32.2 µM; with TK-10 renal it was 38.3 µM; in the assay with UACC-62 melanoma it was 27.5 µM.
Consider `CNC(=S)NNC1=NCCCCN1`, for which the concentration for total growth inhibition (TGI) with EKVX NSCLC, in the assay on HCC-2998 colon, in the assay on HCT-116 colon, with HOP-92 NSCLC, with HS 578T breast and in the assay with HT29 colon was greater than 100 µM in each case. Further, the TGI in the assay with IGROV1 ovarian, in the assay on KM12 colon, with MCF7 breast, in the assay on MDA-MB-435, in the assay with NCI-H460 lung and in the assay with OVCAR-3 ovarian was greater than 100 µM each time. The TGI with OVCAR-5 ovarian, with SF-539 CNS, in the assay with SK-MEL-28 melanoma, in the assay on SNB-19 CNS, in the assay on TK-10 renal and in the assay with UACC-62 melanoma was greater than 100 µM in each case.
`COC(=O)N/N=C(\C)C(CN1CCOCC1)C(c1ccccc1)c1cc2ccccc2oc1=O` (configuration not stated): the concentration for total growth inhibition (TGI) with EKVX NSCLC, in the assay with HCC-2998 colon, in the assay with HCT-116 colon, in the assay with HOP-92 NSCLC, with HS 578T breast and with HT29 colon was greater than 100 µM in each case. Moreover, the TGI in the assay with IGROV1 ovarian, in the assay with KM12 colon, in the assay with MCF7 breast, with MDA-MB-435, with NCI-H460 lung and in the assay with OVCAR-3 ovarian was greater than 100 µM each time. In addition, the total growth inhibition concentration (TGI) in the assay on OVCAR-5 ovarian, in the assay with SF-539 CNS, in the assay with SK-MEL-28 melanoma, in the assay with SNB-19 CNS, in the assay with TK-10 renal and in the assay with UACC-62 melanoma was greater than 100 µM each time.
As for `Cc1cc(NCC2CC/C(=C\C=C\c3ccccc3)C2=O)no1` (configuration not stated), the TGI with EKVX NSCLC, in the assay with HCC-2998 colon, in the assay with HCT-116 colon, with HOP-92 NSCLC, in the assay with HS 578T breast and in the assay with HT29 colon was greater than 100 µM throughout. Also, the concentration for total growth inhibition (TGI) in the assay on IGROV1 ovarian, in the assay with KM12 colon, in the assay with MCF7 breast, in the assay on MDA-MB-435, in the assay on NCI-H460 lung and with OVCAR-3 ovarian was greater than 100 µM throughout. Also, the total growth inhibition concentration (TGI) with OVCAR-5 ovarian, with SF-539 CNS, in the assay with SK-MEL-28 melanoma, in the assay with SNB-19 CNS, with TK-10 renal and in the assay with UACC-62 melanoma was greater than 100 µM each time.
